Test system: TM/JM Her2 mutants expressed in BaF3 cells
Experiment: BaF3 cell viability assay, all Her2 TM/JM mutants tested
Format: cell-based, human
Details: BaF3 system, all Her2 TM/JM mutants tested (FIG. 7)
Procedure: BaF3 cells were maintained in RPMI 1640 supplemented with 10% (v/v) fetal bovine serum (Thermo Fisher Scientific, IL), 2 mM L-glutamine, 100 U/ml penicillin, 100 mg/ml streptomycin (complete RPMI) and 2 ng/mL mouse IL-3.
BaF3 cells were cultured in complete RPMI media supplemented with recombinant murine IL-3 (mIL-3) and puromycin (1 μg/ml).
BaF3 cells survival assay was performed as described previously (Jaiswal et al., 2011). Briefly, stable cells expressing Her2 WT or mutants were washed twice times with 1× PBS and plated in 96-well plates (10,000 cells/well) in replicates of 12 in complete RPMI medium without IL-3. Cell viability was measured using the Cell Titer Glo Luminescence Cell Viability Kit (Promega, CA), and plates were read on a Synergy 2 (Biotek Instruments) luminescence plate reader. Relative survival reported was calculated as a ratio of relative luciferase activity (RLU) at day 4 over RLU measured at the day 0. The mutant Her2 constructs were tested in BaF3 either alone or in the presence of WT Flag tagged Her2 as indicated.
Viable cell number was assessed 4 days after treatment using Cell Titer-Glo Luminescent cell viability assay kit (Promega, WI). Non-linear regression plot of antibodies and their fractions or inhibitors were generated and calculation of IC50 was performed using GraphPad Prism 5.00 (GraphPad Software, CA). […]

Compound | response of Her2 TM/JM mutants to ERBB2 kinase inhibitory small molecule drugs, effect on cell survival
CS(=O)(=O)CCNCc1ccc(-c2ccc3ncnc(Nc4ccc(OCc5cccc(F)c5)c(Cl)c4)c3c2)o1 [lapatinib] | respond
CCOc1cc2ncc(C#N)c(Nc3ccc(OCc4ccccn4)c(Cl)c3)c2cc1NC(=O)/C=C/CN(C)C [neratinib] | respond

Source: US20200172631A1, “ERBB2/HER2 MUTATIONS IN THE TRANSMEMBRANE OR JUXTAMEMBRANE DOMAIN” (GENENTECH, INC., priority 2017, published 2020)
